Assay results as given in patent US7897401B2, “Control of apoptosis by controlling the propensity of ceramide channel formation” (University of Maryland, College Park, priority 2005, dated 2011).

Key:
Type in all cases: biochemical
[1] = test system: ceramide channel in planar phospholipid membrane; experiment: Electrophysiological recordings on planar phospholipid membranes
From the text: Planar phospholipid membranes were produced by the monolayer method (Montal, M. et al. (1972) “FORMATION OF BIMOLECULAR MEMBRANES FROM LIPID MONOLAYERs AND A STUDY OF THEIR ELECTRICAL PROPERTIES,” Proc. Natl. Acad. Sci. USA 69:3561-3566) as modified by Colombini, M. (1987) (“CHARACTERIZATION OF CHANNELS ISOLATED FROM PLANT MITOCHONDRIA,” Methods Enzymol. 148:465-475), across a 100-μm-diameter hole in a Saran partition. Monolayers were produced using a solution of 0.5% w/v asolectin, 0.5% w/v DiPhyPC, 0.1% w/v cholesterol in hexane. This technique produces solvent-free phospholipid membranes whose lipid composition (focusing on the polar head-groups) is similar to that found in the mitochondrial outer membrane. It differs from the natural membrane in lacking proteins.
The aqueous solutions contained 1 mM MgCl2, and 5 mM Pipes pH 6.8 with KCl varying from 0.10 M to 1.0 M. The KCl concentration on one side of the membrane, referred to as the “trans” side, was always 0.10 M, whereas the other side (the “cis” side) was adjusted as needed. The transmembrane voltage was electronically clamped and the current through the membrane was recorded. The voltage values indicated are the voltage differences across the membrane cis side minus trans side.
C2-ceramide was stirred into the aqueous solution on each side of the membrane from a solution in DMSO, generally 0.5 mg/ml. Single or multiple additions, typically […] each, yielding a final concentration of 2 μg/ml, were made to achieve a desired level of conductance. Sphingosine additions of 5 μl were made from a solution in DMSO (4 mg/mL) yielding a final concentration of 4 μg/mL.
The observation that anti-apoptotic Bcl-2 family proteins inhibit ceramide channel formation in isolated yeast and rat liver mitochondria correlates with previous reports showing inhibition of ceramide-induced apoptosis in whole cells by these proteins. Thus the results directly tie ceramide-induced mitochondrial-mediated apoptosis with the Bcl-2 family of proteins known to regulate these events. To address whether the antiapoptotic proteins act directly on ceramide channels or work by an indirect action, their affects on ceramide channels in solvent-free planar phospholipid membranes was tested. This is a defined system free of other proteins. When C16-ceramide is added to the aqueous solution bathing one side of a planar phospholipid membrane, it results in discontinuous increases in conductance under voltage-clamp conditions, the defining characteristic of channel formation in membranes. These conductance increments are the enlargement of one ceramide channel rather than the formation of multiple ceramide channels in parallel (Siskind, L. J. et al. (2003) “ENLARGEMENT AND CONTRACTURE OF C2-CERAMIDE CHANNELS,” Biophys. J. 85:1560-1575). […]

[2] = test system: ceramide channels in the mitochondrial outer membrane (MOM); experiment: Adenylate kinase release assay in isolated rat liver mitochondria
Description: The preparation yielded a mitochondrial suspension containing 10 mg of protein per mL. […] The mitochondria were then pelleted at 14,000 g for 5 min at 4° C. and the supernatant was kept on ice until assayed. […] The enzymes were added to the rest of the reaction mixture 1 min before the addition of the mitochondrial supernatant to allow a trace of ATP to be consumed. The activity of adenylate kinase was detected as an increase in absorbance at 340 nm. Since the activity of the kinase decays with time, even on ice, experiments were performed in sets and the activity of the first supernatant was assayed again at the end of the set. The values were fitted to a first order decay and all values within the set were corrected for the decay of the activity, based on the time delay before assay.
To determine the effect of sphingosine pretreatment on ceramide permeabilization of the mitochondrial outer membrane, mitochondria were incubated at room temperature in the presence of varying concentrations of sphingosine for […] before addition of ceramide and incubation for 10 min. Untreated mitochondria and mitochondria hypotonically lysed (20 μl into 1.2 ml water) served as negative and positive controls, respectively.
Experiments with C16-ceramide were performed in a similar way except as follows. The mitochondria were suspended in the above medium except that the 1 mM Tris buffer was replaced by 5 mM HEPES. To 1.0 mL of this medium at room temperature (RT) was added 17 μL of mitochondrial suspension that had been kept on ice at a concentration of 4 mg/mL. The final mitochondrial protein concentration during the experiment was 80 μg/mL. In the case of shocked mitochondria, the 1.0 mL of medium was replaced by water. Sphingosine was added, where appropriate, from a 0.25 mg/mL solution in DMSO. Typically 4-7 incubations were run in parallel. All samples were incubated for 5 min at RT. Then some samples received 0.4 mL of fatty acid depleted bovine serum albumin (BSA), 25 mg/mL, followed immediately by 20 μL of C16-ceramide dissolved in isopropanol at 2 mg/mL. After a 10-min incubation at RT, 10 μL of 4 mM PMSF was added followed by centrifugation. In these experiments 0.3 mL of mitochondrial supernatant was added to the adenylate kinase reaction mixture.

[3] = test system: ceramide channels in liposomes; experiment: Liposome carboxyfluorescein release (ceramide channel formation in liposomes); settings: C16-ceramide 80 μg, liposomes 90 μg lipid
Description: The polar extract of soybean phospholipids (Avanti Polar Lipids, Alabaster, Ala.) and cholesterol (Sigma Chemical, St. Louis, Mo.) were mixed in a 93:7 molar ratio in chloroform and dried under nitrogen followed by drying in vacuo overnight. This mixture resembles the lipid content of mammalian mitochondrial outer membranes. Five mg of this mixture were dispersed in 1 mL of 39 mM NaCl, 6 mM DPX (Molecular Probes, Eugene, Oreg.), 1.5 mM carboxyfluorescein (Acros Organics, Geel, Belgium) and subjected to four freeze-thaw/sonication cycles. After extrusion through a 0.2 μm filter (Avanti Polar Lipids) for 13 passes it was run through a gel filtration column equilibrated and eluted with 50 mM NaCl, 10 mM HEPES, 1 mM EDTA, pH 7.0. The liposomes were used within 30 h. Twenty-five microliters of liposomes were dispersed into 2.0 mL of the elution buffer and placed into a quartz fluorescence cuvette. The fluorescence was monitored using a Deltascan Spectrofluorometer (Photon Technology Instruments, West Sussex, UK) using excitation at 495 nm and emission at 520 nm. Forty microliters of C16-ceramide (2 mg/mL of isopropanol) were added while stirring. Sphingosine was added from either a 1 mg/mL or a 0.1 mg/mL solution in DMSO.

[4] = Protein (cytochrome c) release and metabolism of sphingosine in isolated mitochondria; settings: compound alone, maximum
[5] = observed in isolated mitochondria and liposome permeability assay

CCCCCCCCCCCCC/C=C/[C@@H](O)[C@@H](N)CO [sphingosine]
time at which conductance reached a minimum ([1]; C2-ceramide 3 μg/mL, sphingosine 8 μg/mL at t=0, KCl gradient): 20 min
time over which membrane conductance decreased after addition ([1]; C2-ceramide channel (9 μg/mL), sphingosine 4 μg/mL cis side, 10 mV): 15 to 20 min
effect on formed ceramide channel ([1]; C2-ceramide channel, sphingosine 4 μg/mL, conductance reached level of unmodified membrane): completely disassembled
permeabilization of the MOM to adenylate kinase after removal of excess compound with BSA ([2]; 2.4 μg/mL for 5 min, then fatty acid depleted BSA, no ceramide added): release of adenylate kinase is evident
effect of preincubation on C16-ceramide permeabilization of the MOM and adenylate kinase release ([2]; 5 min preincubation, C16-ceramide 40 μg/mL, 10 min, low concentration potentiates, higher inhibits): biphasic relationship
sphingosine exposure giving essentially total inhibition of ceramide-dependent adenylate kinase release ([2]; 5 min pretreatment, then C2-ceramide 29 μg/mL for 10 min at room temperature, depends on batch of mitochondria): 0.3 to 0.6 µg/mL
release of adenylate kinase by compound alone ([2]; no ceramide, concentration range up to 6 μg/mL): did not induce the release of adenylate kinase
higher levels that strongly inhibited ceramide channel formation [2, 5]: 5 to 10 µM
low levels that stimulated ceramide induced permeabilization of the mitochondrial outer membrane to proteins [2, 5]: 1 to 2 µM
effect of pretreatment on C16-ceramide-induced carboxyfluorescein release from liposomes [3]: biphasic enhancement
release of cytochrome c from isolated mitochondria [4]: ≤ 15%
